According to paper PMC11677126, “Synthesis and Structure–Activity Relationship of Thiourea Derivatives Against Leishmania amazonensis” (Pharmaceuticals, 2024):

Columns and labels:
[1] = tested on: L. amazonensis promastigote; experiment: Antipromastigote assay (resazurin fluorescence); type: cell-based, Leishmania amazonensis; details: promastigotes, 72 h at 26 °C
Procedure: The fluorescence was measured using a Spectra Max GEMINI XPS spectrofluorometer (Molecular Devices, Silicon Valley, CA, USA) at excitation and emission wavelengths of 560 nm and 590 nm, respectively.

[2] = tested on: L. amazonensis intracellular amastigotes; experiment: Antiamastigote assay in infected peritoneal macrophages (infection index); type: cell-based; details: Leishmania amazonensis, Peritoneal macrophage, 72 h
Procedure: Resident macrophages from BALB/c mice were obtained by peritoneal lavage with 5 mL of cold RPMI medium. The cell suspension was adjusted to a 2 × 10^6 cells/mL concentration and plated in LAB-TEK chambers. After 1 h, the cultures were washed with phosphate-buffered saline at 37 °C to remove non-adherent cells. The remaining cells were incubated at 37 °C/5% CO2 with promastigotes of L. amazonensis at a ratio of 3:1. After 3 h, the chambers were rewashed to remove free parasites. […] For G2, we first tested only at a concentration of 10 µM, and derivatives with inhibition above 60% were evaluated using the dose–response curve. The antiamastigote activity was evaluated microscopically after staining the chambers with the Instant Prov hematological dye system (Newprov, Curitiba, Brazil); at least 100 macrophages were counted per sample. The results were expressed as the infection index (IF) using the following formula: IF = % infected cells X (number of amastigotes/total macrophages). The IC50 value was determined by nonlinear regression using Graph Pad Prism 9.0.

[3] = Toxicity assay in murine macrophages (resazurin); type: cell-based; details: BALB/c, mouse, mouse peritoneal macrophages
Procedure: Mouse peritoneal macrophages (2 × 10^6 cells/mL) in 96-well plates were treated with different concentrations of thiourea compounds (G1: 0–400 µM and G2: 0–125 µM) for 72 h at 37 °C/5% CO2. After removing the supernatant, viable cells were quantified by adding resazurin in phosphate-buffered saline, a final concentration of 50 µM, and then the samples were incubated for an additional 3 h. The fluorescence was measured using a Spectra Max GEMINI XPS spectrofluorometer (Molecular Devices, Silicon Valley, CA, USA) at excitation and emission wavelengths of 560 nm and 590 nm, respectively. The percentage of viable cells was calculated relative to the control cells. The cytotoxic concentrations lethal to 50% of the cells (CC50) were obtained by nonlinear regression of the sigmoid growth curves using the Graph Pad Prism 9.0 software.

[4] = tested on: Leishmania amazonensis amastigotes; parameters: method as in PMID 28966275; details: read-out: IC50 (amastigote); cited from earlier work
[5] = Leishmania amazonensis, 72 h, G2 piperazine thioureas
[6] = Leishmania amazonensis, 72 h, G1 thioureas, maximum concentration tested 100 µM
[7] = G2 piperazine thioureas, maximum concentration tested 10 µM, unit from footnote
[8] = G2 piperazine thioureas, 0–125 µM

Question: Which IC50 [1, 5] does the source give for `S=C(Nc1ccccc1)N1CCN(c2nc3ccccc3[nH]2)CC1` [Thiourea 5p] here?
Answer: Its IC50 is over 128 µM.

Question: Which IC50 [1, 6] does the source give for `COc1ccc(NC(=S)Nc2ccccc2)cc1` [Thiourea 3g] here?
Answer: Its IC50 is over 100 µM.

Question: With `CCCCNC(=S)Nc1cc(OC)c(OC)c(OC)c1` [Thiourea 3b′] as the molecule, how does the IC50 [1, 6] read?
Answer: Its IC50 is over 100 µM.

Question: Which IC50 [2, 7] does the source give for `COc1ccc(CN2CCN(C(=S)NCc3ccccc3)CC2)c(OC)c1OC` [Thiourea 5n] here?
Answer: Its IC50 is over 10 µM.

Question: And the IC50 [1, 5]?
Answer: Its IC50 is 42.5 ± 1.6 µM.

Question: What about the CC50 at 72 h [3, 8] of the same molecule?
Answer: Its CC50 at 72 h is 88.3 ± 5.6 µM.

Question: With `S=C(Nc1ccccc1)Nc1ccccn1` [Thiourea 3d] as the molecule, how does the IC50 ([2]; G1 thioureas, maximum concentration tested 25 µM) read?
Answer: The IC50 was 10.8 ± 2.4 µM.

Question: And the CC50 at 72 h ([3]; G1 thioureas, 0–400 µM)?
Answer: The CC50 at 72 h was over 400 µM.

Question: Which IC50 [1, 5] does the source give for `COc1cc(NC(=S)N2CCN(c3ccccc3Cl)CC2)cc(OC)c1OC` [Thiourea 5u] here?
Answer: The IC50 was over 128 µM.

Question: For `S=C(Nc1ccccc1)N1CCOCC1` [Thiourea 3a], which IC50 [1, 6] is on record?
Answer: The IC50 was over 100 µM.

Question: Which IC50 [1, 6] does the source give for `COc1ccc(NC(=S)Nc2cc(OC)c(OC)c(OC)c2)cc1OC` [Thiourea 3z] here?
Answer: The IC50 was over 100 µM.

Question: Which IC50 [1, 6] does the source give for `COc1cc(NC(=S)NCCc2ccccc2)cc(OC)c1OC` [Thiourea 3m] here?
Answer: The IC50 was over 100 µM.

Question: For `O=C(C1CCCO1)N1CCN(C(=S)NCCc2ccccc2)CC1` (stereo not drawn) [Thiourea 5c], which IC50 [1, 5] is on record?
Answer: The IC50 was over 128 µM.

Question: For `COc1cc(NC(=S)N2CCOCC2)cc(OC)c1OC` [Thiourea 3x], which IC50 [1, 6] is on record?
Answer: The IC50 was over 100 µM.

Question: Which IC50 [1, 6] does the source give for `CCCCNC(=S)Nc1ccccc1` [Thiourea 3t] here?
Answer: The IC50 was 60 ± 6.4 µM.

Question: What does the source list for `S=C(NCc1ccccc1)Nc1ccccn1` [Thiourea 3e]?
Answer: IC50 ([1]; G1 thioureas, maximum concentration tested 100 µM): 25.4 ± 8.3 µM; IC50 [1, 6]: < 50 µM; CC50 at 72 h ([3]; G1 thioureas, 0–400 µM): > 400 µM

Question: Which IC50 [1, 5] does the source give for `S=C(Nc1ccccc1)N1CCN(Cc2ccc3c(c2)OCO3)CC1` [Thiourea 5d] here?
Answer: The IC50 was 90.2 ± 2.9 µM.

Question: For `COc1ccc(NC(=S)NCCc2ccccc2)cc1OC` [Thiourea 3j], which IC50 [1, 6] is on record?
Answer: Its IC50 is over 100 µM.

Question: For `COc1cc(NC(=S)N2CCN(C(c3ccccc3)c3ccccc3)CC2)cc(OC)c1OC` [Thiourea 5t], which IC50 [2, 7] is on record?
Answer: The IC50 was 4.9 ± 1.2 µM.

Question: What about the IC50 [1, 5] of the same molecule?
Answer: Its IC50 is 22.3 ± 1.6 µM.

Question: What about the CC50 at 72 h [3, 8] of the same molecule?
Answer: Its CC50 at 72 h is 81.3 ± 16.9 µM.

Question: For meglumine antimoniate, which IC50 [4] is on record?
Answer: The IC50 was 212 µM.

Question: Which results are given for `S=C(NCc1ccccc1)N1CCN(Cc2ccc3c(c2)OCO3)CC1` [Thiourea 5e]?
Answer: IC50 [2, 7]: > 10 µM; IC50 [1, 5]: 30.3 ± 4.6 µM; CC50 at 72 h [3, 8]: 122 ± 2.8 µM

Question: For `Cc1nnc(NC(=S)Nc2ccccc2)s1` [Thiourea 3r], which IC50 [1, 6] is on record?
Answer: The IC50 was 65.8 ± 8.2 µM.

Question: Which IC50 [1, 5] does the source give for `O=C(C1CCCO1)N1CCN(C(=S)NCc2ccccc2)CC1` (stereo not drawn) [Thiourea 5b] here?
Answer: Its IC50 is 77.5 ± 4.5 µM.

Question: With `S=C(NCc1ccccc1)N1CCN(c2ccccc2Cl)CC1` [Thiourea 5k] as the molecule, how does the IC50 [2, 7] read?
Answer: The IC50 was over 10 µM.

Question: What about the IC50 [1, 5] of the same molecule?
Answer: The IC50 was 30.7 ± 3 µM.

Question: And the CC50 at 72 h [3, 8]?
Answer: The CC50 at 72 h was 68.3 ± 2.8 µM.

Question: Which IC50 [1, 6] does the source give for `COc1cc(NC(=S)Nc2ccccn2)cc(OC)c1OC` [Thiourea 3y] here?
Answer: Its IC50 is over 100 µM.

Question: For `COc1cc(NC(=S)N2CCN(Cc3ccc4c(c3)OCO4)CC2)cc(OC)c1OC` [Thiourea 5s], which IC50 [1, 5] is on record?
Answer: The IC50 was over 128 µM.

Question: Which IC50 [1, 6] does the source give for `S=C(NCCc1ccccc1)N1CCOCC1` [Thiourea 3c] here?
Answer: The IC50 was over 100 µM.

Question: Which IC50 [1, 6] does the source give for `CN(C[C@H](O)[C@@H](O)[C@H](O)[C@H](O)CO)C(=S)NCc1ccccc1` [Thiourea 3w] here?
Answer: Its IC50 is over 100 µM.

Question: With `COc1cc(NC(=S)N2CCN(Cc3ccc(OC)c(OC)c3OC)CC2)cc(OC)c1OC` [Thiourea 5v] as the molecule, how does the IC50 [1, 5] read?
Answer: The IC50 was over 128 µM.

Question: For `S=C(NCc1ccccc1)N1CCOCC1` [Thiourea 3b], which IC50 [1, 6] is on record?
Answer: The IC50 was over 100 µM.

Question: Which IC50 [1, 6] does the source give for `COc1cc(NC(=S)NCCc2ccccc2)cc(OC)c1` [Thiourea 3l] here?
Answer: The IC50 was over 100 µM.

Question: For `S=C(NCCc1ccccc1)N1CCN(C(c2ccccc2)c2ccccc2)CC1` [Thiourea 5i], which IC50 [2, 7] is on record?
Answer: The IC50 was 1.8 ± 0.5 µM.

Question: What about the IC50 [1, 5] of the same molecule?
Answer: The IC50 was 6.9 ± 2 µM.

Question: What about the CC50 at 72 h [3, 8] of the same molecule?
Answer: The CC50 at 72 h was over 125 µM.
